According to patent publication US7829063B2, “Development of molecular imaging probes for carbonic anhydrase-IX using click chemistry” (Siemens Medical Solutions USA, Inc., priority 2007, dated 2010):

What was measured:
CA-IX [1] = target: T1, CA-IX (Homo sapiens, UniProt Q16790); assay: Binding affinity (Kd) determination for CA-IX inhibitors, DNSA fluorescence competition assay, Scatchard plots; details: Table 3
T1 construct: His tag (C); purchased R&D Systems Inc. 2188-CA; host or cells: mouse myeloma cell line NS0
Description: General. […] The human red blood cells were obtained from Research Blood Components, LLC. All absorbance measurements were performed on a SPECTRA MAX M2 plate reader at 25° C. The LC/MS analyses were performed on an Agilent 1100 series LC/MSD (SL) using a 30×2.1 mm Zorbax C8 column with a Phenomenex C18 pre-column. Compound detection was accomplished by electrospray mass spectroscopy in positive selected ion mode (LC/MS-SIM). The elution solvents were acetonitrile and water, contained 0.05% TFA. Nuclear magnetic resonance (NMR) spectra were obtained on a Bruker AMX 300 MHz spectrometer or a Varian 400. 19F NMR spectra were recorded on a Bruker AMX 282.35 MHz or a Varian 400 spectrometer. The mass spectra were recorded on an Agilent 1100 series LC/MSD with electrospray mass spectroscopic detection. Flash column chromatography was performed on Merck silica gel (40-63 μm) using the solvent system indicated. The radiochemical and chemical purities were analyzed by RP-HPLC.
General Procedure of Binding Affinity (Ka) Determination for CA-IX Inhibitors
The assay was based on the observation that the only fluorescence signal detected at 460 nm upon excitation at 290 nm, an absorption […] for DNSA, was that of the DNSA.CA complex. […] The latter were developed for each test compound using mass balance for calculating the concentration of CA bound to DNSA [DNSA.CA], bound to the non-fluorescent sample [CA.Inh] and free CA [CA] in solution. The Kd values were determined from Scatchard plots using the equation below as described by Whitesides et al. [CA.Inh]/[CA]tot.[Inh]=K11^inh−K11^inh{[CA.Inh]+[CA.DNSA]}/([CA]tot)
The terms [CA.DNSA], [CA.Inh], and free CA were calculated using the mass balance based on the known values for the dissociation constant of CA.DNSA and the total concentration of CA in each reaction.

CA-IX [2] = target: T1, CA-IX; assay: CA-IX combinatorial library screening, competitive fluorescence-based assay with dansylamide (DNSA); type: binding; details: Table 1, Libraries 1-3; sample concentrations 100 nM and 1000 nM, DNSA 200 μM; screening at 1 μM
Method in brief: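 Recombinant His-tagged CA-IX (NS0-expressed) in phosphate buffer pH 7.4 with test compound at 100 nM or 1000 nM; competitive displacement started with 200 μM dansylamide (stock concentration). After 1 h at 25 °C, fluorescence read at 460 nm (excitation 290 nm).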

Kd (CA-IX [1])	In Vitro Binding Assay (Library Screening) (CA-IX [2])	SMILES
5 nM	√ √	CC(C)[C@H](C(=O)NCc1ccco1)n1cc(-c2ccc(S(N)(=O)=O)cc2)nn1 (stereo in doubt) [DHK25]
12.5 nM	√	Cc1ccc(CNC(=O)[C@H](C(C)C)n2cc(COc3ccc4nc(S(N)(=O)=O)sc4c3)nn2)cc1F [DHK123]
25 nM	√	NS(=O)(=O)c1nc2ccc(OCc3cn(Cc4cccc(Br)c4)nn3)cc2s1 [DHK121]
17 nM	√	Cc1ccnc(NC(=O)[C@H](Cc2ccccc2)n2cc(-c3ccc(S(N)(=O)=O)cc3)nn2)c1 [DHK7]
10 nM	√ √	COC(=O)[C@H](CSCc1ccccc1)NC(=O)Cn1cc(COc2ccc3nc(S(N)(=O)=O)sc3c2)nn1 [DHK113]
20 nM	√	NS(=O)(=O)c1ccc(-c2cn(Cn3nnc4ccccc43)nn2)cc1 [DHK29]
10 nM	–	NS(=O)(=O)c1nc2cc(OCc3cn(C(CCO)C(=O)NC(CSCc4cccc(OCCF)c4)C(=O)O)nn3)ccc2s1 (single isomer, unassigned) [VM2-107a]
3.4 nM	–	CCOC(=O)C1CCN(C(=O)[C@H](Cc2ccccc2)n2cc(COc3ccc4nc(S(N)(=O)=O)sc4c3)nn2)CC1 [DHK2-68]
10 nM	–	COC(=O)C[C@H](NC(=O)[C@H](Cc1ccc(OCCF)cc1)n1cc(COc2ccc3nc(S(N)(=O)=O)sc3c2)nn1)c1ccccc1 [DHK2-128]
14 nM	–	NS(=O)(=O)c1nc2cc(OCc3cn(CC(=O)NCCCOCCOCCOCCCNC(=O)c4ccc(C(=O)O)c(-c5c6ccc(=O)cc-6oc6cc(O)ccc56)c4)nn3)ccc2s1 [WZ01101]
11 nM	–	NCC1OC(C(=O)NCCOc2cccc(COCC(NC(=O)Cn3cc(COc4ccc5nc(S(N)(=O)=O)sc5c4)nn3)C(=O)O)c2)C(O)C(O)C1O (centres unmarked) [DHK3-155]
14.1 nM	√	CC(C)C(C(=O)NCc1cc(F)ccc1F)n1cc(COc2ccc3nc(S(N)(=O)=O)sc3c2)nn1 (centres unmarked) [DHK117]
5 nM	–	COC(=O)[C@@H](CSCc1cccc(OCCF)c1)NC(=O)[C@H](CCO)n1cc(COc2ccc3nc(S(N)(=O)=O)sc3c2)nn1 [VM2-106, (S)-methyl 3-(3-(2-fluoroethoxy)benzylthio)-2-(S)-4-hydroxy-2-(4-((2-sulfamoylbenzo[d]thiazol-6-yloxy)methyl)-1H-1,2,3-triazol-1-yl)butanamido) propanoate]
5 nM	–	CC(C)C(C(=O)NC(COCc1cccc(OCCO)c1)C(=O)O)n1cc(COc2ccc3nc(S(N)(=O)=O)sc3c2)nn1 (single isomer, unassigned) [VM3-165A]
10 nM	–	NCCOc1cccc(COCC(NC(=O)Cn2cc(COc3ccc4nc(S(N)(=O)=O)sc4c3)nn2)C(=O)O)c1 (centres unmarked) [DHK3-149]
5 nM	–	NS(=O)(=O)c1nc2ccc(OCc3cn(C(Cc4ccc(F)cc4)C(=O)NC(COCc4cccc(OCCO)c4)C(=O)O)nn3)cc2s1 (single isomer, unassigned) [VM3-167A]
5 nM	–	CC(C)[C@@H](C(=O)NCC1COc2ccccc2O1)n1cc(COc2ccc3nc(S(N)(=O)=O)sc3c2)nn1 (some centres unmarked) [DHK2-44]
14 nM	√	NS(=O)(=O)c1ccc(-c2cn(Cn3c(=S)sc4ccccc43)nn2)cc1 [DHK19]
12.5 nM	√	NS(=O)(=O)c1nc2ccc(OCc3cn(Cn4nnc5ccccc54)nn3)cc2s1 [DHK128]
5 nM	–	CC(C)[C@@H](C(=O)N[C@H](Cc1ccc(C(F)(F)F)cc1)C(=O)O)n1cc(COc2ccc3nc(S(N)(=O)=O)sc3c2)nn1 [DHK2-160-F2]

Kd (CA-IX [1])	In Vitro Binding Assay (Library Screening) (CA-IX [2])	SMILES
5 nM	–	NS(=O)(=O)c1nc2cc(OCc3cn(C(CCO)C(=O)NC(CSCc4cccc(OCCF)c4)C(=O)O)nn3)ccc2s1 (single isomer, unassigned) [VM2-107b]
5 nM	–	CCOC(=O)C1CCN(C(=O)[C@H](Cc2ccc(OCCF)cc2)n2cc(COc3ccc4nc(S(N)(=O)=O)sc4c3)nn2)CC1 [DHK2-118]
10 nM	–	NS(=O)(=O)c1nc2ccc(OCc3cn(C(Cc4ccc(F)cc4)C(=O)NC(COCc4cccc(OCCO)c4)C(=O)O)nn3)cc2s1 (single isomer, unassigned) [VM3-167B]
10 nM	–	COCCOCCOCCOCCC(=O)NCCOc1cccc(CSC[C@@H](NC(=O)Cn2cc(COc3ccc4nc(S(N)(=O)=O)sc4c3)nn2)C(=O)O)c1 [DHK3-48]
10 nM	–	CC(C)[C@@H](C(=O)N1CCC(C(=O)O)CC1)n1cc(COc2ccc3nc(S(N)(=O)=O)sc3c2)nn1 [DHK2-84]
2 nM	–	NS(=O)(=O)c1nc2ccc(OCc3cn([C@@H](Cc4ccc(OCCF)cc4)C(=O)NC(Cc4cccc(C(F)(F)F)c4)C(=O)O)nn3)cc2s1 (some centres unmarked) [DHK2-181]
10 nM	–	C[N+](C)(C)C[C@H](O)CC(=O)NCCOc1cccc(COCC(NC(=O)Cn2cc(COc3ccc4nc(S(N)(=O)=O)sc4c3)nn2)C(=O)O)c1 (some centres unmarked) [DHK3-156]
5 nM	–	NS(=O)(=O)c1nc2ccc(OCc3cn(CC(=O)N[C@H](CSCc4cccc(OCCOCCOCCF)c4)C(=O)O)nn3)cc2s1 [BW2-45, (S)-3-(3-(2-(2-(2-fluoroethoxy)ethoxy)ethoxy)benzylthio)-2-(2-(4-((2-sulfamoylbenzo[d]thiazol-6-yloxy)methyl)-1H-1,2,3-triazol-1-yl)acetamido) propanoic acid]
25 nM	√	CC(C)[C@@H](C(=O)NCc1ccco1)n1cc(COc2ccc3nc(S(N)(=O)=O)sc3c2)nn1 [DHK127]
2 nM	–	Cc1onc(-c2ccccc2)c1CNC(=O)[C@H](Cc1ccccc1)n1cc(COc2ccc3nc(S(N)(=O)=O)sc3c2)nn1 [DHK2-66]
5 nM	–	CC(C)C(C(=O)NC(Cc1ccc(OCC(O)CF)cc1)C(=O)O)n1cc(COc2ccc3nc(S(N)(=O)=O)sc3c2)nn1 (single isomer, unassigned) [VM4047a]
14 nM	–	NS(=O)(=O)c1nc2ccc(OCc3cn(CC(=O)NC(COCc4cccc(OCCNC(=O)CN(CCO)CCO)c4)C(=O)O)nn3)cc2s1 (centres unmarked) [DHK3-158]
10 nM	–	CC(C)[C@@H](C(=O)N[C@H](Cc1ccc(C(F)(F)F)cc1)C(=O)O)n1cc(COc2ccc3nc(S(N)(=O)=O)sc3c2)nn1 [DHK2-160-F1]
10 nM	–	N[C@@H](CO)C(=O)NCCOc1cccc(COC[C@H](NC(=O)Cn2cc(COc3ccc4nc(S(N)(=O)=O)sc4c3)nn2)C(=O)O)c1 [VM3-163, (S)-3-(3-(2-((S)-2-amino-3-hydroxypropanamido)ethoxy)benzyloxy)-2-(2-(4-((2-sulfamoylbenzo[d]thiazol-6-yloxy)methyl)-1H-1,2,3-triazol-1-yl)acetamido)propanoic acid]
11 nM	–	CC(C)[C@H](C(=O)N[C@H](Cc1ccc(OCC(O)CF)cc1)C(=O)O)n1cc(COc2ccc3nc(S(N)(=O)=O)sc3c2)nn1 (single isomer, unassigned) [VM4047b]
2.5 nM	–	NS(=O)(=O)c1nc2ccc(OCc3cn([C@@H](Cc4ccccc4)C(=O)NCc4ccc(C(F)(F)F)cc4)nn3)cc2s1 [DHK2-51, (S)-3-phenyl-2-(4-((2-sulfamoylbenzo[d]thiazol-6-yloxy)methyl)-1H-1,2,3-triazol-1-yl)-N-(4-(trifluoromethyl)benzyl)propanamide]
25 nM	–	NS(=O)(=O)c1nc2ccc(OCc3cn(CC(=O)NC(COCc4cccc(OCCNC(=O)CCC(=O)O)c4)C(=O)O)nn3)cc2s1 (centres unmarked) [DHK3-154]
16.7 nM	√	CCOC(=O)c1ccc(Cn2cc(COc3ccc4nc(S(N)(=O)=O)sc4c3)nn2)cc1 [DHK125]
1.3 nM	–	CC(C)[C@@H](C(=O)N[C@@H](Cc1ccc(OCCF)cc1)C(=O)O)n1cc(COc2ccc3nc(S(N)(=O)=O)sc3c2)nn1 [VM4037a, (S)-3-(4-(2-fluoroethoxy)phenyl)-2-((S)-3-methyl-2-(4-((2-sulfamoylbenzo[d]thiazol-6-yloxy)methyl)-1H-1,2,3-triazol-1-yl)butanamido) propanoic acid]
